Reference: ChEMBL document CHEMBL1124295, “Synthesis and oral antiallergic activity of carboxylic acids derived from imidazo[2,1-c][1,4]benzoxazines, imidazo[1,2-a]quinolines, imidazo[1,2-a]quinoxalines, imidazo[1,2-a]quinoxalinones, pyrrolo[1,2-a]quinoxalinones, pyrrolo[2,3-a]quinoxalinones, and imidazo[2,1-b]benzothiazoles” (1988)
The source made the active and inactive calls. The calls are words filed in the database; no cut-off is given here.

Experiments:
Rattus norvegicus [1] = test: Inhibition of the IgE-mediated passive cutaneous anaphylaxis (PCA) reaction in rat after oral administration; NA means inactive at 1 and 10 mg/Kg; type: functional, organism-based
Rattus norvegicus [2] = test: Inhibition of the IgE-mediated passive cutaneous anaphylaxis (PCA) reaction in rat after intravenous administration; Range 0.13-0.26; type: functional
Rattus norvegicus [3] = test: Inhibition of the IgE-mediated passive cutaneous anaphylaxis (PCA) reaction in rat after intravenous administration; Range 2.74-6.94; type: functional
Rattus norvegicus [4] = test: Inhibition of the IgE-mediated passive cutaneous anaphylaxis (PCA) reaction in rat after intravenous administration; […]; type: functional
Rattus norvegicus [5] = test: Inhibition of the IgE-mediated passive cutaneous anaphylaxis (PCA) reaction in rat after oral administration; Range 1.22-2.52; type: functional
Rattus norvegicus [6] = test: Inhibition of the IgE-mediated passive cutaneous anaphylaxis (PCA) reaction in rat after oral administration; Inactive at 1 and 10 mg/kg; type: functional, organism-based; design: dose 10 mg/kg
Rattus norvegicus [7] = test: Inhibition of the IgE-mediated passive cutaneous anaphylaxis (PCA) reaction in rat after intravenous administration; Range 0.24-1.05; type: functional
Rattus norvegicus [8] = test: Inhibition of the IgE-mediated passive cutaneous anaphylaxis (PCA) reaction in rat after intravenous administration; NA means inactive at 1 and 10 mg/Kg; type: functional, organism-based
Rattus norvegicus [9] = test: Inhibition of the IgE-mediated passive cutaneous anaphylaxis (PCA) reaction in rat after oral administration; Range 0.74-2.02; type: functional
Rattus norvegicus [10] = test: Inhibition of the IgE-mediated passive cutaneous anaphylaxis (PCA) reaction in rat after intravenous administration; Range 0.22-0.38; type: functional
Rattus norvegicus [11] = test: Inhibition of the IgE-mediated passive cutaneous anaphylaxis (PCA) reaction in rat after intravenous administration; Range 0.022-0.04; type: functional
Rattus norvegicus [12] = test: Inhibition of the IgE-mediated passive cutaneous anaphylaxis (PCA) reaction in rat after intravenous administration; Range 0.25-0.41; type: functional
Rattus norvegicus [13] = test: Inhibition of the IgE-mediated passive cutaneous anaphylaxis (PCA) reaction in rat after oral administration; Inactive; type: functional, organism-based
Rattus norvegicus [14] = test: Inhibition of the IgE-mediated passive cutaneous anaphylaxis (PCA) reaction in rat after oral administration; Range 0.29-0.4; type: functional
Rattus norvegicus [15] = test: Inhibition of the IgE-mediated passive cutaneous anaphylaxis (PCA) reaction in rat after intravenous administration; Range 0.24-0.39; type: functional
Rattus norvegicus [16] = test: Inhibition of the IgE-mediated passive cutaneous anaphylaxis (PCA) reaction in rat after intravenous administration; Range 0.12-0.35; type: functional
Rattus norvegicus [17] = test: Inhibition of the IgE-mediated passive cutaneous anaphylaxis (PCA) reaction in rat after intravenous administration; Inactive at 1 and 10 mg/kg; type: functional, organism-based; design: dose 10 mg/kg
Rattus norvegicus [18] = test: Inhibition of the IgE-mediated passive cutaneous anaphylaxis (PCA) reaction in rat after oral administration; Inactive(50% inhibition at 10 mg/kg); type: functional
Rattus norvegicus [19] = test: Inhibition of the IgE-mediated passive cutaneous anaphylaxis (PCA) reaction in rat after oral administration; Range 0.54-0.9; type: functional
Rattus norvegicus [20] = test: Inhibition of the IgE-mediated passive cutaneous anaphylaxis (PCA) reaction in rat after intravenous administration; Range 0.057-0.091; type: functional
Rattus norvegicus [21] = test: Inhibition of the IgE-mediated passive cutaneous anaphylaxis (PCA) reaction in rat after intravenous administration; Range 1.61-7; type: functional
Rattus norvegicus [22] = test: Inhibition of the IgE-mediated passive cutaneous anaphylaxis (PCA) reaction in rat after intravenous administration; Range 0.058-0.12; type: functional
Rattus norvegicus [23] = test: Inhibition of the IgE-mediated passive cutaneous anaphylaxis (PCA) reaction in rat after oral administration; Inactive(45% inhibition at 20 mg/kg); type: functional
Rattus norvegicus [24] = test: Inhibition of the IgE-mediated passive cutaneous anaphylaxis (PCA) reaction in rat after intravenous administration; Range 2.20-3.00; type: functional
Rattus norvegicus [25] = test: Inhibition of the IgE-mediated passive cutaneous anaphylaxis (PCA) reaction in rat after intravenous administration; Range 0.02-0.38; type: functional
Rattus norvegicus [26] = test: Inhibition of the IgE-mediated passive cutaneous anaphylaxis (PCA) reaction in rat after intravenous administration; Range 0.19-0.59; type: functional
Rattus norvegicus [27] = test: Inhibition of the IgE-mediated passive cutaneous anaphylaxis (PCA) reaction in rat after intravenous administration; Range 1.14-3.89; type: functional
Rattus norvegicus [28] = test: Inhibition of the IgE-mediated passive cutaneous anaphylaxis (PCA) reaction in rat after oral administration; Range 0.3-10.04; type: functional

O=C(O)c1nc2n(c1CO)-c1ccccc1OC2
ED50 (Rattus norvegicus [1]): inactive

CCn1c(=O)c2cc(C(=O)Nc3nn[nH]n3)cn2c2ccccc21
ED50 (Rattus norvegicus [2]): 0.18 mg/kg

O=C(O)c1nc2ccc3ccccc3n2c1Br
ED50 (Rattus norvegicus [3]): 4.19 mg/kg

O=C(O)c1cc2c(=O)n(C3CCCC3)c3ccccc3n2c1
ED50 (Rattus norvegicus [4]): 0.037 mg/kg | ED50 (Rattus norvegicus [5]): 1.96 mg/kg

O=C(Nc1nn[nH]n1)c1cn2c(cnc3ccccc32)n1
ED50 (Rattus norvegicus [6]): inactive | ED50 (Rattus norvegicus [7]): 0.45 mg/kg

COC(=O)c1nc2n(c1C(=O)O)-c1ccccc1OC2
ED50 (Rattus norvegicus [8]): inactive

CCCn1c(=O)c2nc(C(=O)OCC)cn2c2ccccc21
ED50 (Rattus norvegicus [9]): 1.21 mg/kg

Cc1cc2sc3nc(C(=O)O)cn3c2cc1C
ED50 (Rattus norvegicus [10]): 0.3 mg/kg

CCn1c(=O)c2cc(C(=O)O)cn2c2cc(C)c(C)cc21
ED50 (Rattus norvegicus [11]): 0.03 mg/kg

CCn1c(=O)c2nc(C(=O)Nc3nn[nH]n3)cn2c2ccccc21
ED50 (Rattus norvegicus [12]): 0.32 mg/kg

CCOC(=O)c1cn2c3ccccc3c(=O)n(CC)c2n1
ED50 (Rattus norvegicus [13]): inactive

CCOC(=O)c1cn2c(cnc3cc(Cl)c(Cl)cc32)n1
ED50 (Rattus norvegicus [1]): inactive

O=C(O)c1cn2c(ccc3ccccc32)n1
ED50 (Rattus norvegicus [14]): 0.34 mg/kg | ED50 (Rattus norvegicus [15]): 0.3 mg/kg

O=C(O)c1cn2c(cnc3cc(Cl)c(Cl)cc32)n1
ED50 (Rattus norvegicus [16]): 0.2 mg/kg | ED50 (Rattus norvegicus [6]): inactive

COc1ccc2ccc3nc(C(=O)Nc4nn[nH]n4)cn3c2c1
ED50 (Rattus norvegicus [17]): inactive

COc1ccc2c(OC(C)C)cc3nc(C(=O)O)cn3c2c1
inhibition in vivo at 10 mg/kg (Rattus norvegicus [18]): 50%

CCOC(=O)c1cn2c(n1)c(C#N)cc1ccccc12
ED50 (Rattus norvegicus [1]): inactive

O=C(O)c1nc2n(c1C(=O)O)-c1ccccc1OC2
ED50 (Rattus norvegicus [8]): inactive

O=C(O)c1cn2c(cc(-c3ccccc3)c3cc(Cl)ccc32)n1
ED50 (Rattus norvegicus [6]): inactive

NC(=O)c1cn2c(ccc3ccccc32)n1
ED50 (Rattus norvegicus [1]): inactive

O=C(O)c1cn2c(cnc3ccccc32)n1 [DAZOQUINAST]
ED50 (Rattus norvegicus [19]): 0.13 mg/kg | ED50 (Rattus norvegicus [20]): 0.073 mg/kg

CCC1Oc2ccccc2-n2cc(C(=O)O)nc21 (stereo unspecified)
ED50 (Rattus norvegicus [21]): 2.6 mg/kg

Cc1c(C(=O)O)nc2cc(Cl)c3ccccc3n12
ED50 (Rattus norvegicus [6]): inactive

COc1ccc2ccc3nc(C(N)=O)cn3c2c1
ED50 (Rattus norvegicus [6]): inactive

c1ccc2c(c1)OCc1nc(CN3CCCCC3)cn1-2
ED50 (Rattus norvegicus [8]): inactive

O=C(O)Cc1cn2c(n1)COc1ccccc1-2
ED50 (Rattus norvegicus [8]): inactive

O=C(O)c1nnn2c1c(O)nc1ccccc12
ED50 (Rattus norvegicus [22]): 0.084 mg/kg | inhibition in vivo at 20 mg/kg (Rattus norvegicus [23]): 45%

CS1(=O)=Nc2nc(C(=O)O)cn2-c2ccccc21 (stereo unspecified)
ED50 (Rattus norvegicus [24]): 2.59 mg/kg

OCc1cn2c(cc(Cl)c3ccc(Cl)cc32)n1
ED50 (Rattus norvegicus [25]): 0.16 mg/kg

CCOC(=O)c1c(C(=O)OC)nc2n1-c1ccccc1OC2
ED50 (Rattus norvegicus [8]): inactive

O=C(O)c1cn2c(n1)sc1ccccc12
ED50 (Rattus norvegicus [26]): 0.33 mg/kg

Cc1c(C(=O)O)nc2ccc3ccc(Cl)cc3n12
ED50 (Rattus norvegicus [27]): 1.99 mg/kg

COC(=O)c1nc2n(c1CO)-c1ccccc1OC2
ED50 (Rattus norvegicus [1]): inactive

CCOC(=O)c1cn2c(cc(Cl)c3ccc(Cl)cc32)n1
ED50 (Rattus norvegicus [28]): 1.49 mg/kg

O=C(O)c1nc(Cc2ccccc2)n2c1c(O)nc1ccccc12
ED50 (Rattus norvegicus [6]): inactive
